Measured values taken from article PMC10252203, “Tyrosinase Inhibitory Peptides from Enzyme Hydrolyzed Royal Jelly: Production, Separation, Identification and Docking Analysis” (Foods, 2023).
Entries after “also recorded” stand apart in the source; their conditions may differ. Ends that are not written are not given here.

Legend:
[1] = target: T1, TYR (Agaricus bisporus, UniProt C7FF04); design: method as in 2 sources, one per row (each row's own in cited_ref): ref [48] = [48]; PMID 34313364; doi:10.1002/ardp.202100204; 48. Krobthong S. Yingchutrakul Y. Samutrtai P. Choowongkomon K. The C-terminally shortened analogs of a hexapeptide derived from Lingzhi hydrolysate with enhanced tyrosinase-inhibitory activity Arch. ||| ref [16],[17] = [16]; PMID 33459057; doi:10.1080/10408398.2021.1871724; 16. Peng Z.Y. Wang G.C. Zeng Q.H. Li Y.F. Liu H.Q. Wang J.J. Zhao Y. A systematic review of synthetic tyrosinase inhibitors and their structure-activity relationship Crit. Rev. Food Sci. Nutr. 2021 62 || [17]; PMID 35603815; doi:10.1111/1750-3841.16160; 17. Xue W. Liu X. Zhao W. Yu Z. Identification and molecular mechanism of novel tyrosinase inhibitory peptides from collagen J. Food Sci. 2022 87 2744 2756 10.1111/1750-3841.16160 35603815; conditions: ref [16],[17]; cited from earlier work
T1 construct: purchased Shanghai Yuanye Bio-Technology Co., Ltd. (Shanghai, China)
T1 sequence (C7FF04 2-392): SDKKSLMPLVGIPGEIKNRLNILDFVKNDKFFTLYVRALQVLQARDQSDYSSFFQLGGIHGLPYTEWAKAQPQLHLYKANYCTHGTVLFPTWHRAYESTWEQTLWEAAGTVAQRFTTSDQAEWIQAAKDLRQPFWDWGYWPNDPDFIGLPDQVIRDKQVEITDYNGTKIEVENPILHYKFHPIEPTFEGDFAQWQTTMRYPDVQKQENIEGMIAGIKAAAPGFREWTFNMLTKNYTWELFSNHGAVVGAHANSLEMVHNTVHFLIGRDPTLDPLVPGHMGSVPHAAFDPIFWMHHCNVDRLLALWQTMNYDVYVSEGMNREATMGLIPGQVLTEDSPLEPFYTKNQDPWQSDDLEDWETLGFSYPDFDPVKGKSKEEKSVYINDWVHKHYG
Description: Bioactive peptides are functional peptide fragments produced during the hydrolysis, cleavage, or maturation of proteins, and their relative molecular mass is usually less than 6000 Da.

[2] = ref [47]; cited from earlier work
Description: Guo isolated and purified 29 antioxidant peptides from RJ and verified their antioxidant activity.

[3] = target: T1, TYR; test: TYR inhibitory activity (L-DOPA oxidation); assay type: biochemical
Description: Determination and calculation methods of TYR inhibitory activity were referred to the detection method of Ji and modified slightly. Briefly, the TYR was dissolved to prepare solutions using 0.05 M phosphate buffer saline (pH 6.8). Then, the mixed 40 μL of ERJ, 2 U/mL 100 μL of TYR, and 1.0 mmol/L 100 μL of L-DOPA were added in a 96-well plate, and the absorbance at 475 nm was measured immediately after 10 s and recorded as A1. The reaction system was incubated for 190 s at 25 °C and measured again and recorded as A2. We repeated the above steps by replacing the ERJ with buffer and measuring the absorbance value after 10 s, recorded as A3, and the absorbance value after 190 s as A4. The inhibition rate of ERJ on TYR was calculated according to the following equation:(1) Inhibition percentage (%)=(1−ΔA/ΔB) × 100% where, ΔA = A2 − A1, ΔB = A4 − A3.

[4] = tested on: fungus, yeast, and bacteria; conditions: ref [45],[46]; cited from earlier work

## OC[C@H]1O[C@@H](Oc2ccc(O)cc2)[C@H](O)[C@@H](O)[C@@H]1O [arbutin]
[1]
  inhibitory effect on TYR activity (in words), literature: strong inhibitory effects

## Oc1ccc(O)cc1 [hydroquinone]
[1]
  inhibitory effect on TYR activity (in words), literature: strong inhibitory effects

## Arg-Tyr
[2]
  free radical scavenging ability: strong free radical scavenging ability

## IIPFIF [IIPFIF]
[3]
  TYR inhibitory activity (in words): maximum activity; also recorded: highest of the three peptides

## ILFTLL [ILFTLL]
[3]
  TYR inhibitory activity (in words): lowest activity; also recorded: lowest of the three peptides

## Tyr-Tyr
[2]
  free radical scavenging ability: strong free radical scavenging ability

B1: MRJP-4: major royal jelly protein (protein, UniProt Q17061 16-464, looked up)
Major royal jelly protein 4: QNIRGGVVRENSSGKNLTNTLNVIHKWKYLDYDFDNDERRQAAIQSGEYDRTKNYPLDVDQWHNKTFLAVIRYNGVPSSLNVVSDKTGNGGRLLQPYPDWSFAKYEDCSGIVSAHKIAIDEYERLWVLDSGLVNNTQPMCSPKLFAFDLNTSQLLKQVEIPHDVATTGKGELVSLTVQAMDSTNTMVYMVDNKNTLIIYQNADDSFHRLSSHTLNHNSDKMSDQQENLTLKEVDNKVYGMALSPVTHNLYYNSPSSENLYYVNTESLMKSENQGNDVQYERVQDVFDSQLTVKAVSKNGVLLFGLANNTLSCWNEHQSLDRQNIDVVARNEDTLQMVVSMKIKQNVPQSGRVNNTQRNEYLLALSDRNQNVLNNDLNLEHVNFQILGANVNDLIRNSRCANFDNQDNNHYNHNHNQARHSSKSDNQNNNQHNDQAHHSSKSNNRHNNND
[4]
  antibacterial properties: have antibacterial properties

B2: MRJP-2: major royal jelly protein (protein, UniProt O77061 18-452, looked up)
Major royal jelly protein 2: AIVRENSPRNLEKSLNVIHEWKYFDYDFGSEERRQAAIQSGEYDHTKNYPFDVDQWRDKTFVTILRYDGVPSTLNVISGKTGKGGRLLKPYPDWSFAEFKDCSKIVSAFKIAIDKFDRLWVLDSGLVNRTVPVCAPKLHVFDLKTSNHLKQIEIPHDIAVNATTGKGGLVSLAVQAIDLANTLVYMADHKGDALIVYQNADDSFHRLTSNTFDYDPRYAKMTIDGESFTLKNGICGMALSPVTNNLYYSPLASHGLYYVNTAPFMKSQFGENNVQYQGSEDILNTQSLAKAVSKNGVLFVGLVGNSAVGCWNEHQSLQRQNLEMVAQNDRTLQMIAGMKIKEELPHFVGSNKPVKDEYMLVLSNRMQKIVNDDFNFDDVNFRILGANVKELIRNTHCVNNNQNDNIQNTNNQNDNNQKNNKKNANNQKNNNQNDN
[4]
  antibacterial properties: have antibacterial properties
